{"source": "paper PMC7541927", "about": "(Preventive Nutrition and Food Science, 2020)", "target": "T1, α-amylase from porcine pancreas (Sus scrofa, UniProt P00690)", "T1 sequence (P00690 16-511)": "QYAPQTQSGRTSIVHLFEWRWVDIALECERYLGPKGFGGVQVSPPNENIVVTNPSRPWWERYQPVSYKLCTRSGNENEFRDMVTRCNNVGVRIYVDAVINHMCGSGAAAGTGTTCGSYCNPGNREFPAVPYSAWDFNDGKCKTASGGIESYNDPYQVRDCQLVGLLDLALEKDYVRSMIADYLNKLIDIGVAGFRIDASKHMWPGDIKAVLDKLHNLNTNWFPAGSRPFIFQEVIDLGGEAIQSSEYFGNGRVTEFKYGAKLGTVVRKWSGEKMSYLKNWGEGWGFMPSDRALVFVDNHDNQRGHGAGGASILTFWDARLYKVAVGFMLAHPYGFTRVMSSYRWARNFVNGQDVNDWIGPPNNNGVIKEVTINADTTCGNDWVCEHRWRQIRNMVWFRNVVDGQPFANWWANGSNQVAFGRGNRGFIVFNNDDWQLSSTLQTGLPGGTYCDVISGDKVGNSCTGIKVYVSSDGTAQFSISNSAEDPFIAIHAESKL", "test": "biochemical", "data": [{"smiles": "O=C(O)CC(O)(CC(=O)O)C(=O)O", "note": "[citric acid]", "values": [{"measurement": "IC50", "result": "640 ± 40", "unit": "µM"}]}]}
